The results in this text go back to patent publication US20230051589A1, “COMPOUNDS AND COMPOSITIONS FOR TREATING CONDITIONS ASSOCIATED WITH NLRP ACTIVITY” (Novartis AG, priority 2018, published 2023).

The structures appear in SMILES notation. pIC50: −log10 of the molar value.

The first assay concerns IL-1β production in PMA-differentiated THP-1 cells. The experiment in a line: IL-1β production in PMA-differentiated THP-1 cells stimulated with gramicidin (hTHP-1 assay, 2% fetal bovine serum; Procedures 1-3). The format is cell-based, human. The following applies: Homo sapiens, THP-1, hTHP-1 assay containing 2% fetal bovine serum, Table B2, class symbols; read-out: IC50. As to the method: The following protocol is suitable for testing the activity of the compounds disclosed herein.
Procedure 1: IL-1β Production in PMA-Differentiated THP-1 Cells Stimulated with Gramicidin.
THP-1 cells were purchased from the American Type Culture Collection and sub-cultured according to instructions from the supplier. Cells were cultured in complete RPMI 1640 (containing 10% heat inactivated FBS, penicillin (100 units/ml) and streptomycin (100 μg/ml)), and maintained in log phase prior to experimental setup. Prior to the experiment, compounds were dissolved in dimethyl sulfoxide (DMSO) to generate a 30 mM stock. The compound stock was first pre-diluted in DMSO to 3, 0.34, 0.042 and 0.0083 mM intermediate concentrations and subsequently spotted using Echo550 liquid handler into an empty 384-well assay plate to achieve desired final concentration (e.g. 100, 33, 11, 3.7, 1.2, 0.41, 0.14, 0.046, 0.015, 0.0051, 0.0017 μM). DMSO was backfilled in the plate to achieve a final DMSO assay concentration of 0.37%. The plate was then sealed and stored at room temperature until required.
THP-1 cells were treated with PMA (Phorbol 12-myristate 13-acetate) (20 ng/ml) for 16-18 hours. On the day of the experiment the media was removed and adherent cells were detached with trypsin for 5 minutes. Cells were then harvested, washed with complete RPMI 1640, spun down, and resuspended in RPMI 1640 (containing 2% heat inactivated FBS, penicillin (100 units/ml) and streptomycin (100 μg/ml). The cells were plated in the 384-well assay plate containing the spotted compounds at a density of 50,000 cells/well (final assay volume 50 μl). Cells were incubated with compounds for 1 hour and then stimulated with gramicidin (5 μM) (Enzo) for 2 hours. Plates were then centrifuged at 340 g for 5 min. Cell free supernatant (40 μL) was collected using a 96-channel PlateMaster (Gilson) and the production of IL-1β was evaluated by HTRF (cisbio). The plates were incubated for 18 h at 4° C. and read using the preset HTRF program (donor emission at 620 nm, acceptor emission at 668 nm) of the SpectraMax i3x spectrophotometer (Molecular Devices, software SoftMax 6). A vehicle only control and a dose titration of CRID3 (100-0.0017 μM) were run concurrently with each experiment.
Procedure 2: IL-1β Production in PMA-Differentiated THP-1 Cells Stimulated with Gramicidin.
THP-1 cells were purchased from the American Type Culture Collection and sub-cultured according to instructions from the supplier. Prior to experiments, cells were cultured in complete RPMI 1640 (containing 10% heat inactivated FBS, penicillin (100 units/ml) and streptomycin (100 μg/ml)), and maintained in log phase prior to experimental setup. Prior to the experiment THP-1 were treated with PMA (Phorbol 12-myristate 13-acetate) (20 ng/ml) for 16-18 hours. Compounds were dissolved in dimethyl sulfoxide (DMSO) to generate a 30 mM stock. On the day of the experiment the media was removed and adherent cells were detached with trypsin for 5 minutes. Cells were then harvested, washed with complete RPMI 1640, spun down, resuspended in RPMI 1640 (containing 2% heat inactivated FBS, penicillin (100 units/ml) and streptomycin (100 μg/ml) . The cells were plated in a 384-well plate at a density of 50,000 cells/well (final assay volume 50 μl). Compounds were first dissolved in assay medium to obtain a 5× top concentration of 500 μM. 10 step dilutions (1:3) were then undertaken in assay medium containing 1.67% DMSO. 5× compound solutions were added to the culture medium to achieve desired final concentration (e.g. 100, 33, 11, 3.7, 1.2, 0.41, 0.14, 0.046, 0.015, 0.0051, 0.0017 μM). Final DMSO concentration was at 0.37%. Cells were incubated with compounds for 1 hour and then stimulated with gramicidin (5 μM) (Enzo) for 2 hours. Plates were then centrifuged at 340 g for 5 min. Cell free supernatant (40 μL) was collected using a 96-channel PlateMaster (Gilson) and the production of IL-1β was evaluated by HTRF (cisbio). […]
With `N[S@](=O)(=NC(=O)Nc1c2c(cc3c1CCC3)CCC2)c1ccc(C2CCNC2)cc1F` (single isomer, unassigned) [Example 501, (S) or (R)-2-fluoro-N′-((1,2,3,5,6,7-hexahydro-s-indacen-4-yl)carbamoyl)-4-(pyrrolidin-3-yl)benzenesulfonimidamide], the pIC50 is 4.52 to 5.30.

As for `N[S@@](=O)(=NC(=O)Nc1c2c(cc3c1CCC3)CCC2)c1ccc(C2CCNC2)cc1F` (single isomer, unassigned) [Example 502, (R) or (S)-2-fluoro-N′-((1,2,3,5,6,7-hexahydro-s-indacen-4-yl)carbamoyl)-4-(pyrrolidin-3-yl)benzenesulfonimidamide], the negative-log IC50 (pIC50) is 6.00 to 6.70.

Still in this assay, the particulars now being: Table B1; hTHP-1 assay containing 2% fetal bovine serum, gramicidin stimulation, IL-1β readout; read-out: hTHP-1 IC50 (average).
On to `CC(C)c1ccc(S(N)(=O)=NC(=O)Nc2c3c(cc4c2CCC4)CCC3)cn1` (single isomer, unassigned) [Example 402, (S) or (R)-N′-((1,2,3,5,6,7-hexahydro-s-indacen-4-yl)carbamoyl)-6-isopropyl-pyridine-3-sulfonimidamide], for which the negative-log IC50 (pIC50) was 5.30 to 6.00.

Turning to `NCc1ccc(S(N)(=O)=NC(=O)Nc2c3c(cc4c2CCC4)CCC3)cc1` (single isomer, unassigned) [Example 411, (R) or (S)-4-(aminomethyl)-N′-((1,2,3,5,6,7-hexahydro-5-indacen-4-yl)carbamoyl)-benzenesulfonimidamide], the pIC50 is 5.30 to 6.00.

`CN(C)Cc1ccc(S(N)(=O)=NC(=O)Nc2c3c(cc4c2CCC4)CCC3)nc1` (single isomer, unassigned) [Example 413, (R) or (S)-5-((dimethyl-amino)methyl)-N′-((1,2,3,5,6,7-hexahydro-s-indacen-4-yl)carbamoyl)-pyridine-2-sulfonimid-amide]: the negative-log IC50 (pIC50) was 6.00 to 6.70.

Regarding `CC(C)(O)c1ncc(S(N)(=O)=NC(=O)Nc2cc3c(c4c2CCC4)CCC3)s1` (single isomer, unassigned) [Example 419, (R) or (S)-N′-((1,2,3,6,7,8-hexahydro-as-indacen-4-yl)carbamoyl)-2-(2-hydroxypropan-2-yl)thia-zole-5-sulfonimidamide], the negative-log IC50 (pIC50) was 6.70 to 7.40.

As for `[2H]C1([2H])CCc2cc3c(c(NC(=O)N=S(N)(=O)c4cnc(C(C)(C)O)s4)c21)C([2H])([2H])CC3` (single isomer, unassigned) [Example 421, (R) or (S)-N′-((1,2,3,5,6,7-hexahydro-s-indacen-4-yl-3,3,5,5-d4)carbamoyl)-2-(2-hydroxypropan-2-yl)-thiazole-5-sulfonimidamide], the negative-log IC50 (pIC50) is 7.40 to 8.10.

For `[2H]C1([2H])CCc2c1cc1c(c2NC(=O)N=S(N)(=O)c2cnc(C(C)(C)O)s2)CCC1([2H])[2H]` (single isomer, unassigned) [Example 423, (R) or (S)-N′-((1,2,3,5,6,7-hexahydro-s-indacen-4-yl-1,1,7,7-d4)carbamoyl)-2-(2-hydroxypropan-2-yl)-thiazole-5-sulfonimidamide], the pIC50 is 7.40 to 8.10.

Staying with this assay, now noted: hTHP-1 assay containing 2% fetal bovine serum, Table B2, class symbols; read-out: IC50.
As to `CC(C)(O)c1cc(F)c(S(N)(=O)=NC(=O)Nc2c3c(cc4c2CC4)CCC3)s1` (single isomer, unassigned) [Example 432], the negative logarithm of the IC50 (pIC50) was 7.40 to 8.10.

On to `CC(C)(O)c1cc(F)c(S(N)(=O)=NC(=O)Nc2c3c(cc4c2CC4)CCC3)s1` (single isomer, unassigned) [Example 433], for which the negative-log IC50 (pIC50) is 6.00 to 6.70.

Consider `Cc1c(C2CC2)cc2c(c1NC(=O)N=[S@@](N)(=O)c1cc(C(C)(C)O)cs1)CCC2` (single isomer, unassigned) [Example 498, (R) or (S)-N′-((6-cyclopropyl-5-methyl-2,3-dihydro-1H-inden-4-yl)carbamoyl)-4-(2-hydroxyprepan-2-yl)thiophene-2-sulfonimidamide], for which the pIC50 was 7.40 to 8.10.

Take `NS(=O)(=NC(=O)Nc1c2c(cc3c1CCC3)CCC2)c1cnn2c1OC[C@H](O)C2` (single isomer, unassigned) [Example 515, (R,6R) or (S,6R)-N′-((1,2,3,5,6,7-hexahydro-s-indacen-4-yl)carbamoyl)-6-hydroxy-6,7-dihydro-5H-pyrazolo[5,1-b] [1,3]oxazine-3-sulfonimidamide]: the pIC50 is 6.70 to 7.40.

Turning to `NS(=O)(=NC(=O)Nc1c2c(cc3c1CCC3)CCC2)c1cnn2c1OC[C@H](O)C2` (single isomer, unassigned) [Example 516, (S,6R) or (R,6R)-N′-((1,2,3,5,6,7-hexahydro-s-indacen-4-yl)carbamoyl)-6-hydroxy-6,7-dihydro-5H-pyrazolo[5,1-b] [1,3]oxazine-3-sulfonimidamide], the negative-log IC50 (pIC50) was 5.30 to 6.00.

Turning to `CN(C)Cc1cnc(S(N)(=O)=NC(=O)Nc2c3c(cc4c2CCC4)CCC3)c(F)c1` (single isomer, unassigned) [Example 517, (S) or (R)-5-((dimethylamino)methyl)-3-fluoro-N′-((1,2,3,5,6,7-hexahydro-s-indacen-4-yl)carbamoyl)pyridine-2-sulfonimidamide], the negative-log IC50 (pIC50) is 4.52 to 5.30.

Regarding `CN(C)Cc1cnc(S(N)(=O)=NC(=O)Nc2c3c(cc4c2CCC4)CCC3)c(F)c1` (single isomer, unassigned) [Example 518, (R) or (S)-5-((dimethylamino)methyl)-3-fluoro-N′-((1,2,3,5,6,7-hexahydro-s-indacen-4-yl)carbamoyl) pyridine-2-sulfonimidamide], the negative-log IC50 (pIC50) was 5.30 to 6.00.

`CNCC(C)(C)c1ccc(S(N)(=O)=NC(=O)Nc2c3c(cc4c2CCC4)CCC3)cc1` (single isomer, unassigned) [Example 519, (R) or (S)-N′-((1,2,3,5,6,7-hexahydro-s-indacen-4-yl)carbamoyl)-4-(2-methyl-1-(methylamino)propan-2-yl) benzenesulfonimidamide]: the pIC50 was 5.30 to 6.00.

With `CNCC(C)(C)c1ccc(S(N)(=O)=NC(=O)Nc2c3c(cc4c2CCC4)CCC3)cc1` (single isomer, unassigned) [Example 520, (S) or (R)-N′-((1,2,3,5,6,7-hexahydro-s-indacen-4-yl)carbamoyl)-4-(2-methyl-1-(methylamino)propan-2-yl) benzenesulfonimidamide], the pIC50 was 4.52 to 5.30.

In the case of `Cc1c(C2CC2)cc2c(c1NC(=O)N=[S@](N)(=O)c1cc(C(C)(C)O)cs1)CCC2` (single isomer, unassigned) [Example 521, (S) or (R)-N′-((6-cyclopropyl-5-methyl-2,3-dihydro-1H-inden-4-yl)carbamoyl)-4-(2-hydroxyprepan-2-yl)thiophene-2-sulfonimidamide], the pIC50 is 5.30 to 6.00.

On to `CC(C)(O)c1cncc(S(N)(=O)=NC(=O)Nc2c3c(c(C#N)c4c2CCC4)CCC3)c1` (single isomer, unassigned) [Example 522, (R) or (S)-N′-((8-cyano-1,2,3,5,6,7-hexahydro-s-indacen-4-yl)carbamoyl)-5-(2-hydroxypropan-2-yl)pyridine-3-sulfonimidamide], for which the negative-log IC50 (pIC50) was 6.00 to 6.70.

With `CC(C)(O)c1cncc(S(N)(=O)=NC(=O)Nc2c3c(c(C#N)c4c2CCC4)CCC3)c1` (single isomer, unassigned) [Example 523, (S) or (R)-N′-((8-cyano-1,2,3,5,6,7-hexahydro-s-indacen-4-yl)carbamoyl)-5-(2-hydroxypropan-2-yl)pyridine-3-sulfonimidamide], the negative-log IC50 (pIC50) is 4.52 to 5.30.
